Common to all, as to assay: NCI tumour cell line growth inhibition, 48 h
Test [1] concerns SNB-78.
For test [2], the system named is DLD-1.
The test system of test [3] is KM-20L2.
Test [4] has as its system LXFL 529.
Test [5] has as its system M19-MEL.
For test [6], the system named is DMS-273.
The test system of test [7] is DMS-114.
The subject of test [8] is HOP-18.

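Cells were grown in 96-well plates and exposed to each compound for 48 hours at five concentrations; endpoints were interpolated linearly between bracketing concentrations, or set to the highest concentration if not reached. GI50 marks 50% less growth.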 Activity calls are given as the source filed them. No stated cut-off is given here; in the data, active = GI50 up to about 1.1 µM and inactive = higher. Where a SMILES comes first, the peptide text is derived from it. [ ]: non-standard residue; d: D form. The star is where a group is joined. ξ: configuration not given here. X4 = COc1ccc(C(N*)c2ccc(OC)cc2)cc1; NMeF = CN[C@@H](Cc1ccccc1)C(=O)O; NMeD = CN[C@@H](CC(=O)O)C(=O)O; NMeV = CN[C@H](C(=O)O)C(C)C; ξNMeV = CNC(C(=O)O)C(C)C; Boc = CC(C)(C)OC(=O)*; ξNMeA = CNC(C)C(=O)O; ξV = CC(C)C(N)C(=O)O

In the case of `CC12Oc3ccc4ccccc4c3C1c1c(ccc3ccccc13)O2` (configuration not stated), the GI50 in test [1], in test [2], in test [3], in test [4], in test [5] and in test [6] was > 100 µM (inactive) in each case. The GI50 in test [7] is > 100 µM (inactive).

On to `CC1=NN(C(=O)c2ccccc2O)C(=O)/C1=C/c1ccc([N+](=O)[O-])cc1`, for which the GI50 in test [1] was 0.0861 µM (active); in test [2], 0.0643 µM (active); in test [3] it was 7.96 µM (inactive); in test [4], 0.0586 µM (active); in test [5], 2.3 µM (inactive); in test [7], 0.0875 µM (active).

In the case of `Cc1cc(C)nc(NS(=O)(=O)c2ccc(Nc3c4ccc(Cl)cc4nc4c(C(=O)Nc5ccc(S(=O)(=O)N=C(N)N)cc5)cccc34)cc2)n1`, the GI50 in test [1] is 39.9 µM (inactive); in test [2], > 100 µM (inactive); in test [3], > 100 µM (inactive); in test [4], 66.7 µM (inactive); in test [5], > 100 µM (inactive); in test [7], 41.7 µM (inactive).

As for `Cc1c(CNc2ccc(C(=O)NC(CC(=O)O)C(=O)O)cc2)ccc2nc(N)nc(N)c12` (configuration not stated), the GI50 in test [1] was > 100 µM (inactive); in test [2], < 0.01 µM (active); in test [4], < 0.01 µM (active); in test [5], 0.122 µM (active); in test [6] it was < 0.01 µM (active); in test [8], 0.867 µM (active). In addition, the GI50 in test [7] was < 0.01 µM (active).

As for `COc1ccc(C(NC(=O)C[C@@H](C(=O)N(C)C(C)C(=O)O)N(C)C(=O)[C@@H]2CCCN2C(=O)[C@H](C(C)C)N(C)C(=O)C(C(C)C)N(C)C(=O)[C@H](Cc2ccccc2)N(C)C(=O)C(NC(=O)OC(C)(C)C)C(C)C)c2ccc(OC)cc2)cc1` (some centres not stated) (Boc-[ξV][NMeF][ξNMeV][NMeV]P[NMeD](X4)[ξNMeA]-OH), the GI50 in test [1] is 15.8 µM (inactive); in test [2] it was 18 µM (inactive); in test [3], 19.9 µM (inactive); in test [4], 14.7 µM (inactive); in test [5], 16.9 µM (inactive); in test [6] it was 17.2 µM (inactive). In addition, the GI50 in test [7] was 16.5 µM (inactive).

In the case of `Cc1cc2c(C)nn(Cc3ccccc3)c2c(C(N)=O)c1C`, the GI50 in test [1], in test [2], in test [3], in test [4], in test [5] and in test [6] was > 100 µM (inactive) each time. For the same molecule, the GI50 in test [7] is > 100 µM (inactive).

As for `COc1ccc(CC2(Cc3ccc(OC)cc3)CCOC2=O)cc1`, the GI50 in test [2] is > 100 µM (inactive); in test [4], > 100 µM (inactive); in test [5] it was > 100 µM (inactive); in test [7], 23.9 µM (inactive).

As to `Cc1nc(-c2nc(C)c(C(=O)/C=C/c3ccc([N+](=O)[O-])cc3)s2)sc1C(=O)/C=C/c1ccc([N+](=O)[O-])cc1`, the GI50 in test [1], in test [2], in test [3], in test [4], in test [5] and in test [7] was > 100 µM (inactive) throughout.

Regarding `O=S(=O)(c1ccccc1)C1(C2(S(=O)(=O)c3ccccc3)CCN=N2)CCN=N1` (configuration not stated), the GI50 in test [2], in test [4], in test [5], in test [6] and in test [7] was > 100 µM (inactive) each time.

For `COC(=O)c1c(CC(=O)OC(C)C)cc2n(c1=O)Cc1c-2nc2ccccc2c1OC`, the GI50 in test [2], in test [3], in test [4], in test [5], in test [6] and in test [8] was > 100 µM (inactive) throughout. The GI50 in test [7] is > 100 µM (inactive).

(Values after ChEMBL document CHEMBL1201862, “PubChem BioAssay data set” (2004).)
